The values that follow come from patent publication US10130633B2, “Compounds” (BAYER PHARMA AKTIENGESELLSCHAFT, priority 2013, dated 2018).

Each structure is given as a SMILES string.

Assay [1] relates to constitutive active colorectal cancer cell (CRC) Wnt pathway. The experiment in a line: HCT116 TOPFlash cellular reporter assay (Super TopFlash luciferase), constitutive active Wnt pathway. The class given is cell-based. The settings on record: HCT116 TOP reporter cells, 36 hours incubation, luciferase expression. On the procedure:
In order to discover and characterize small molecules which inhibit the constitutive active colorectal cancer cell (CRC) Wnt pathway, a cellular reporter assay was employed. […] Stable transfectants were generated by cotransfection with pcDNA3 and selection of stable transfected cells with 1 mg/ml G418.
(In a reporter assay the amount or activity of a reporter protein is the signal.)

The subject of assay [2] is HCT116 FOP control reporter cell line. The experiment in a line: HCT116 FOPFlash control reporter assay (FOP control vector, non-functional TCF elements). The class given is cell-based. The settings on record: HCT116 FOP control reporter cells, 36 hours incubation, luciferase expression. The text has this:
In a parallel approach, HCT116 cells were cotransfected with the FOP control vector and pcDNA3. The FOP vector is identical to the TOP construct, but it contains instead of functional TCF elements a randomized, non-functional sequence. For this transfection a stable transfected cell line was generated as well.

Take `COc1ccc(C(=O)Nc2ccc(-c3ccccc3F)nc2)cc1NC(=O)CN1C[C@@H]2C[C@H]1CO2` [Example 3, N-[6-(2-fluorophenyl)pyridin-3-yl]-4-methoxy-3-{[(1S,4S)-2-oxa-5-azabicyclo[2.2.1]hept-5-ylacetyl]amino}benzamide]: the IC50 (usually the midpoint of a concentration-inhibition curve) in assay [1] (Homo sapiens, HCT-116, 36 h) is 1800 nM; in assay [2] (Homo sapiens, HCT-116, 36 h), no less than 50000 nM.

Consider `COc1ccc(C(=O)Nc2ccc(-c3ccccc3)nc2)cc1NC(=O)CN1CCOCC1` [Example 4, 4-methoxy-3-[(morpholin-4-ylacetyl)amino]-N-(6-phenylpyridin-3-yl)benzamide], for which the IC50 in assay [1] (Homo sapiens, HCT-116, 36 h) is 300 nM; in assay [2] (Homo sapiens, HCT-116, 36 h), no less than 50000 nM.

For `O=C(CN1CCOCC1)Nc1cc(C(=O)Nc2ccc(-c3ccccc3F)nc2)ccc1OC(F)(F)F` [Example 5, N-[6-(2-fluorophenyl)pyridin-3-yl]-3-[(morpholin-4-ylacetyl)amino]-4-(trifluoromethoxy)benzamide], the IC50 in assay [1] (Homo sapiens, HCT-116, 36 h) was 40.3 nM; in assay [2] (Homo sapiens, HCT-116, 36 h), no less than 50000 nM.

Take `O=C(CN1CCOCC1)Nc1cc(C(=O)Nc2ncc(-c3ccccc3)s2)ccc1C(F)(F)F` [Example 12, 3-[(morpholin-4-ylacetyl)amino]-N-(5-phenyl-1,3-thiazol-2-yl)-4-(trifluoromethyl)benzamide]: the IC50 was 530 nM in assay [1] (Homo sapiens, HCT-116, 36 h) and no less than 50000 nM in assay [2] (Homo sapiens, HCT-116, 36 h).

For the molecule `O=C(CN1CCOCC1)Nc1cc(C(=O)Nc2ccc(-c3ccccc3)nc2)ccc1C(F)(F)F` [Example 13, 3-[(morpholin-4-ylacetyl)amino]-N-(6-phenylpyridin-3-yl)-4-(trifluoromethyl)benzamide], the IC50 was 362 nM in assay [1] (Homo sapiens, HCT-116, 36 h) and no less than 50000 nM in assay [2] (Homo sapiens, HCT-116, 36 h).

`CC(C)(C)c1ccc(NC(=O)c2ccc(-c3ccccc3)nc2)cc1NC(=O)CN1CCOCC1` [Example 18, N-{4-tert-butyl-3-[(morpholin-4-ylacetyl)amino]phenyl}-6-phenylnicotinamide]: the IC50 in assay [1] (Homo sapiens, HCT-116, 36 h) was 444 nM; in assay [2] (Homo sapiens, HCT-116, 36 h), 9900 nM.

As for `COc1ccc(NC(=O)c2ncc(-c3ccccc3)s2)cc1NC(=O)CN1CCOCC1` [Example 23, N-{4-methoxy-3-[(morpholin-4-ylacetyl)amino]phenyl}-5-phenyl-1,3-thiazole-2-carboxamide], the IC50 was 98 nM in assay [1] (Homo sapiens, HCT-116, 36 h) and no less than 50000 nM in assay [2] (Homo sapiens, HCT-116, 36 h).

For the molecule `O=C(CN1CCOCC1)Nc1cc(NC(=O)c2ccc(-c3c(F)cccc3F)nc2)ccc1OC(F)(F)F` [Example 29, 6-(2,6-difluorophenyl)-N-{3-[(morpholin-4-ylacetyl)amino]-4-(trifluoromethoxy)phenyl}nicotinamide], the IC50 in assay [1] (Homo sapiens, HCT-116, 36 h) was 156 nM; in assay [2] (Homo sapiens, HCT-116, 36 h), no less than 50000 nM.

On to `COc1ccc(NC(=O)c2ccc(-c3ccccc3F)nc2)cc1NC(=O)CN1CCOCC1` [Example 31, 6-(2-fluorophenyl)-N-{4-methoxy-3-[(morpholin-4-ylacetyl)amino]phenyl}nicotinamide], for which the IC50 in assay [1] (Homo sapiens, HCT-116, 36 h) was found to be 805 nM; in assay [2] (Homo sapiens, HCT-116, 36 h), 36000 nM.

Take `COc1ccc(NC(=O)c2ccc(-c3ccccc3)nc2)cc1NC(=O)CN1CCOCC1` [Example 34, N-{4-methoxy-3-[(morpholin-4-ylacetyl)amino]phenyl}-6-phenylnicotinamide]: the IC50 was 1220 nM in assay [1] (Homo sapiens, HCT-116, 36 h) and no less than 50000 nM in assay [2] (Homo sapiens, HCT-116, 36 h).

As to `COc1ccc(NC(=O)c2ccc(-c3ccc(F)cc3)s2)cc1NC(=O)CN1CCOCC1` [Example 36, 5-(4-fluorophenyl)-N-{4-methoxy-3-[(morpholin-4-ylacetyl)amino]phenyl}thiophene-2-carboxamide], the IC50 in assay [1] (Homo sapiens, HCT-116, 36 h) was 1200 nM; in assay [2] (Homo sapiens, HCT-116, 36 h), 22000 nM.

Turning to `CN1CCN(C2(C(=O)Nc3cc(C(=O)Nc4nnc(-c5ccccc5)s4)ccc3OC(F)F)CC2)CC1` [Example 39, 4-(difluoromethoxy)-3-({[1-(4-methylpiperazin-1-yl)cyclopropyl]carbonyl}amino)-N-(5-phenyl-1,3,4-thiadiazol-2-yl)benzamide], the half-maximal inhibitory concentration (IC50) in assay [1] (Homo sapiens, HCT-116, 36 h) is 33.8 nM; in assay [2] (Homo sapiens, HCT-116, 36 h), 32000 nM.

For the molecule `CN1CCN(C2(C(=O)Nc3cc(C(=O)Nc4nnc(-c5ccccc5)s4)ccc3OC(F)(F)F)CC2)CC1` [Example 52, 3-({[1-(4-methylpiperazin-1-yl)cyclopropyl]carbonyl}amino)-N-(5-phenyl-1,3,4-thiadiazol-2-yl)-4-(trifluoromethoxy)benzamide], the IC50 is 26.5 nM in assay [1] (Homo sapiens, HCT-116, 36 h) and no less than 50000 nM in assay [2] (Homo sapiens, HCT-116, 36 h).

Regarding `O=C(CN1CCOCC1)Nc1cc(C(=O)Nc2nnc(-c3ccccc3)s2)ccc1OC(F)(F)F` [Example 55, 3-[(morpholin-4-ylacetyl)amino]-N-(5-phenyl-1,3,4-thiadiazol-2-yl)-4-(trifluoromethoxy)benzamide], the IC50 in assay [1] (Homo sapiens, HCT-116, 36 h) is 150 nM; in assay [2] (Homo sapiens, HCT-116, 36 h) it was no less than 50000 nM.

Regarding `CN1CCN(CC(=O)Nc2cc(C(=O)Nc3nnc(-c4ccccc4)s3)ccc2C(F)(F)F)CC1` [Example 59, 3-{[(4-methylpiperazin-1-yl)acetyl]amino}-N-(5-phenyl-1,3,4-thiadiazol-2-yl)-4-(trifluoromethyl)benzamide], the IC50 in assay [1] (Homo sapiens, HCT-116, 36 h) was 385 nM; in assay [2] (Homo sapiens, HCT-116, 36 h), no less than 50000 nM.

With `CC(C(=O)Nc1cc(C(=O)Nc2ccc(-c3cccc(F)c3)nc2)ccc1OC(F)(F)F)N1CCOCC1` (centres unmarked) [Example 69, N-[6-(3-fluorophenyl)pyridin-3-yl]-3-{[2-(morpholin-4-yl)propanoyl]amino}-4-(trifluoromethoxy)benzamide], the results for the IC50 in assay [1] and in assay [2] were 14.8 nM and no less than 50000 nM, respectively.

For the molecule `O=C(CN1CCOCC1)Nc1cc(C(=O)Nc2ccc(-c3cc(F)cc(F)c3)nc2)ccc1OC(F)(F)F` [Example 72, N-[6-(3,5-difluorophenyl)pyridin-3-yl]-3-[(morpholin-4-ylacetyl)amino]-4-(trifluoromethoxy)benzamide], the half-inhibitory concentration (IC50) in assay [1] (Homo sapiens, HCT-116, 36 h) came to 106 nM; in assay [2] (Homo sapiens, HCT-116, 36 h) it was 8000 nM.

As to `O=C(CN1CC2CCC(C1)O2)Nc1cc(C(=O)Nc2ccc(-c3cc(F)cc(F)c3)nc2)ccc1OC(F)(F)F` [Example 73, N-[6-(3,5-difluorophenyl)pyridin-3-yl]-3-[(8-oxa-3-azabicyclo[3.2.1]oct-3-ylacetyl)amino]-4-(trifluoromethoxy)benzamide], the IC50 in assay [1] (Homo sapiens, HCT-116, 36 h) is 98.5 nM; in assay [2] (Homo sapiens, HCT-116, 36 h), no less than 50000 nM.

`O=C(CN1CCOCC1)Nc1cc(C(=O)Nc2ccc(-c3ccccc3F)nc2)ccc1C(F)(F)F` [Example 74, N-[6-(2-fluorophenyl)pyridin-3-yl]-3-[(morpholin-4-ylacetyl)amino]-4-(trifluoromethyl)benzamide]: the IC50 came to 85.8 nM in assay [1] (Homo sapiens, HCT-116, 36 h) and 42200 nM in assay [2] (Homo sapiens, HCT-116, 36 h).

Consider `O=C(Nc1ccc(-c2ccccc2F)nc1)c1ccc(F)c(NC(=O)C2(N3CCOCC3)CC2)c1` [Example 77, 4-fluoro-N-[6-(2-fluorophenyl)pyridin-3-yl]-3-({[1-(morpholin-4-yl)cyclopropyl]carbonyl}amino)benzamide], for which the IC50 in assay [1] (Homo sapiens, HCT-116, 36 h) turned out to be 370 nM; in assay [2] (Homo sapiens, HCT-116, 36 h), 14000 nM.

As for `O=C(Nc1nnc(-c2ccccc2)s1)c1ccc(F)c(NC(=O)C2(N3CCOCC3)CC2)c1` [Example 78, 4-fluoro-3-({[1-(morpholin-4-yl)cyclopropyl]carbonyl}amino)-N-(5-phenyl-1,3,4-thiadiazol-2-yl)benzamide], the IC50 in assay [1] (Homo sapiens, HCT-116, 36 h) was 508 nM; in assay [2] (Homo sapiens, HCT-116, 36 h), no less than 50000 nM.

Regarding `COc1ccc(C(=O)Nc2ccc(-c3ccccc3F)nc2)cc1NC(=O)C1(N2CCOCC2)CCC1` [Example 82, N-[6-(2-fluorophenyl)pyridin-3-yl]-4-methoxy-3-({[1-(morpholin-4-yl)cyclobutyl]carbonyl}amino)benzamide], the IC50 in assay [1] (Homo sapiens, HCT-116, 36 h) is 2550 nM; in assay [2] (Homo sapiens, HCT-116, 36 h), no less than 50000 nM.
